Data reported in patent publication US6737383B1, “Herbicidal oxadiazolidines” (priority 1999, dated 2004).

Experiments:
soybean = test: Test B pre/postemergence soybean; assay type: in vivo, Glycine max
Outline: (§1)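 Test chemicals in a non-phytotoxic solvent mixture with surfactant were sprayed preemergence onto planted seeds and postemergence onto plants 2 to 18 cm tall (1- to 4-leaf stage). After twelve to sixteen days in a greenhouse, injury was visually rated against untreated controls from 0 (no effect) to 10 (complete control).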

pigweed = test: Test B pre/postemergence pigweed; assay type: in vivo, Amaranthus retroflexus
Outline: as §1

crabgrass = test: Test B pre/postemergence crabgrass; assay type: in vivo, Digitaria sanguinalis
Outline: as §1

wild oat = test: Test B pre/postemergence wild oat; assay type: in vivo, Avena fatua
Outline: as §1

wheat = test: Test B pre/postemergence wheat; assay type: in vivo, Triticum aestivum
Outline: as §1

rice = test: Test B flood test rice; assay type: in vivo, Oryza sativa
Outline: (§2)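 Each value is a visual injury score relative to controls, with 10 meaning complete control and 0 no effect. Evaluation took place twelve to sixteen days after the 2-leaf-stage plants were treated and kept in the greenhouse.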

sugar beet = test: Test B pre/postemergence sugar beet; assay type: in vivo, Beta vulgaris
Outline: as §1

smallflower flatsedge = test: Test B flood test smallflower flatsedge; assay type: in vivo, Cyperus difformis
Outline: as §2

rape = test: Test B pre/postemergence rape; assay type: in vivo, Brassica napus
Outline: as §1

surinam grass = test: Test B pre/postemergence surinam grass; assay type: in vivo, Brachiaria decumbens
Outline: as §1

bedstraw = test: Test B pre/postemergence bedstraw; assay type: in vivo, Galium aparine
Outline: as §1

duck salad = test: Test B flood test duck salad; assay type: in vivo, Heteranthera limosa
Outline: as §2

purple nutsedge = test: Test B pre/postemergence purple nutsedge; assay type: in vivo, Cyperus rotundus
Outline: as §1

corn = test: Test B pre/postemergence corn; assay type: in vivo, Zea mays
Outline: as §1

velvetleaf = test: Test B pre/postemergence velvetleaf; assay type: in vivo, Abutilon theophrasti
Outline: as §1

blackgrass = test: Test B pre/postemergence blackgrass; assay type: in vivo, Alopecurus myosuroides
Outline: as §1

[1] = Preemergence, Rate 62 g/ha, scale of 0 to 10 where 0 is no effect and 10 is complete control
[2] = Preemergence, Rate 125 g/ha, 0 is no effect, 10 is complete control
[3] = Preemergence, Rate 250 g/ha, scale 0 to 10, 0 is no effect, 10 is complete control
[4] = Preemergence, Rate 500 g/ha, scale of 0 to 10 where 0 is no effect and 10 is complete control
[5] = Rate 62 g/ha, Postemergence, scale of 0 to 10 where 0 is no effect and 10 is complete control
[6] = Rate 125 g/ha, Postemergence, scale 0 to 10
[7] = Rate 500 g/ha, Postemergence, scale 0 to 10
[8] = Rate 62 g/ha, headed Pre-emergence (flood test species), scale 0 to 10 (0 no effect, 10 complete control)
[9] = Rate 125 g/ha, Pre-emergence, flood test species, scale 0 to 10 where 0 is no effect and 10 is complete control
[10] = Rate 250 g/ha, Pre-emergence, flood-test species, scale 0 to 10, 0 is no effect, 10 is complete control
[11] = Rate 500 g/ha, headed Pre-emergence (flood test species), scale 0 to 10 (0 no effect, 10 complete control)

Cc1ccccc1-n1c(=O)on(C(=O)N(c2ccccc2F)C(C)C)c1=O [Compound 204]
Soybean plant response rating (soybean; [1]): 0 | Soybean plant response rating (0 to 10 scale) (soybean; [2]): 0 | Soybean plant response rating (soybean; [3]): 0 | Plant response rating, Soybean (soybean; [4]): 0 | Soybean plant response rating (soybean; [5]): 1 | Soybean plant response rating (soybean; [6]): 1 | Plant response rating (0 to 10; 0 is no effect, 10 is complete control), Soybean (soybean; Rate 250 g/ha, Postemergence): 1 | Soybean plant response rating (soybean; [7]): 7 | Redroot pigweed plant response rating (pigweed; [1]): 0 | Redroot pigweed plant response rating (0 to 10 scale) (pigweed; [2]): 0 | Redroot pigweed plant response rating (pigweed; [3]): 0 | Plant response rating, Redroot pigweed (pigweed; [4]): 0 | Redroot pigweed plant response rating (pigweed; [5]): 0 | Redroot pigweed plant response rating (pigweed; [6]): 0 | Plant response rating (0 to 10; 0 is no effect, 10 is complete control), Redroot pigweed (pigweed; Rate 250 g/ha, Postemergence): 4 | Redroot pigweed plant response rating (pigweed; [7]): 7 | Crabgrass plant response rating (crabgrass; [1]): 6 | Crabgrass plant response rating (0 to 10 scale) (crabgrass; [2]): 8 | Crabgrass plant response rating (crabgrass; [3]): 8 | Plant response rating, Crabgrass (crabgrass; [4]): 8 | Crabgrass plant response rating (crabgrass; [5]): 0 | Crabgrass plant response rating (crabgrass; [6]): 0 | Plant response rating (0 to 10; 0 is no effect, 10 is complete control), Crabgrass (crabgrass; Rate 250 g/ha, Postemergence): 2 | Crabgrass plant response rating (crabgrass; [7]): 5 | Wild oats plant response rating (wild oat; [1]): 0 | Wild oats plant response rating (wild oat; [3]): 3 | Plant response rating, Wild oats (wild oat; [4]): 6 | Wild oats plant response rating (wild oat; [5]): 0 | Wild oats plant response rating (wild oat; [6]): 0 | Plant response rating (0 to 10; 0 is no effect, 10 is complete control), Wild oats (wild oat; Rate 250 g/ha, Postemergence): 0 | Wheat plant response rating (wheat; [1]): 0 | Wheat plant response rating (wheat; [3]): 0 | Plant response rating, Wheat (wheat; [4]): 2 | Wheat plant response rating (wheat; [5]): 0 | Wheat plant response rating (wheat; [6]): 0 | Plant response rating (0 to 10; 0 is no effect, 10 is complete control), Wheat (wheat; Rate 250 g/ha, Postemergence): 0 | Rice plant response rating (rice; [8]): 0 | Rice plant response rating (rice; [9]): 0 | Rice plant response rating (rice; [10]): 0 | Plant response rating, Rice (rice; [11]): 0 | Sugarbeets plant response rating (sugar beet; [1]): 0 | Sugarbeets plant response rating (0 to 10 scale) (sugar beet; [2]): 0 | Sugarbeets plant response rating (sugar beet; [3]): 0 | Plant response rating, Sugarbeets (sugar beet; [4]): 0 | Sugarbeets plant response rating (sugar beet; [5]): 0 | Sugarbeets plant response rating (sugar beet; [6]): 0 | Plant response rating (0 to 10; 0 is no effect, 10 is complete control), Sugarbeets (sugar beet; Rate 250 g/ha, Postemergence): 0 | Sugarbeets plant response rating (sugar beet; [7]): 0 | S. Flatsedge plant response rating (smallflower flatsedge; [8]): 0 | S. Flatsedge plant response rating (smallflower flatsedge; [9]): 0 | S. Flatsedge plant response rating (smallflower flatsedge; [10]): 0 | S. Flatsedge plant response rating (smallflower flatsedge; Rate 500 g/ha, Pre-emergence, flood test species, scale 0 to 10 (0 no effect, 10 complete control)): 0 | Rape plant response rating (rape; [1]): 0 | Rape plant response rating (0 to 10 scale) (rape; [2]): 0 | Rape plant response rating (rape; [3]): 0 | Plant response rating, Rape (rape; [4]): 3 | Rape plant response rating (rape; [5]): 0 | Rape plant response rating (rape; [6]): 0 | Plant response rating (0 to 10; 0 is no effect, 10 is complete control), Rape (rape; Rate 250 g/ha, Postemergence): 0 | Rape plant response rating (rape; [7]): 0 | B. signalgrass plant response rating (surinam grass; [1]): 0 | B. signalgrass plant response rating (0 to 10 scale) (surinam grass; [2]): 0 | B. signalgrass plant response rating (surinam grass; [3]): 0 | Plant response rating, B. signalgrass (surinam grass; [4]): 2 | B. signalgrass plant response rating (surinam grass; [5]): 0 | B. signalgrass plant response rating (surinam grass; Rate 125 g/ha, Postemergence, scale 0 (no effect) to 10 (complete control)): 0 | Plant response rating, B. signalgrass (surinam grass; Rate 250 g/ha, Postemergence, scale 0 to 10, 0 is no effect, 10 is complete control): 0 | B. signalgrass plant response rating (surinam grass; Rate 500 g/ha, Postemergence, scale 0 to 10, 0 no effect, 10 complete control): 0 | Bedstraw plant response rating (bedstraw; [1]): 0 | Bedstraw plant response rating (0 to 10 scale) (bedstraw; [2]): 0 | Bedstraw plant response rating (bedstraw; [3]): 0 | Plant response rating, Bedstraw (bedstraw; [4]): 0 | Bedstraw plant response rating (bedstraw; [5]): 0 | Bedstraw plant response rating (bedstraw; [6]): 0 | Plant response rating (0 to 10; 0 is no effect, 10 is complete control), Bedstraw (bedstraw; Rate 250 g/ha, Postemergence): 6 | Bedstraw plant response rating (bedstraw; [7]): 7 | Ducksalad plant response rating (duck salad; [8]): 0 | Ducksalad plant response rating (duck salad; [9]): 0 | Ducksalad plant response rating (duck salad; [10]): 0 | Plant response rating, Ducksalad (duck salad; [11]): 0 | Nutsedge plant response rating (purple nutsedge; [1]): 0 | Nutsedge plant response rating (0 to 10 scale) (purple nutsedge; [2]): 0 | Nutsedge plant response rating (purple nutsedge; [3]): 0 | Plant response rating, Nutsedge (purple nutsedge; [4]): 0 | Nutsedge plant response rating (purple nutsedge; [5]): 0 | Nutsedge plant response rating (purple nutsedge; [6]): 0 | Plant response rating (0 to 10; 0 is no effect, 10 is complete control), Nutsedge (purple nutsedge; Rate 250 g/ha, Postemergence): 0 | Nutsedge plant response rating (purple nutsedge; [7]): 0 | Corn plant response rating (corn; [1]): 0 | Corn plant response rating (0 to 10 scale) (corn; [2]): 0 | Corn plant response rating (corn; [3]): 0 | Plant response rating, Corn (corn; [4]): 2 | Corn plant response rating (corn; [5]): 0 | Corn plant response rating (corn; [6]): 0 | Plant response rating (0 to 10; 0 is no effect, 10 is complete control), Corn (corn; Rate 250 g/ha, Postemergence): 0 | Corn plant response rating (corn; [7]): 0 | Velvetleaf plant response rating (velvetleaf; [1]): 0 | Velvetleaf plant response rating (velvetleaf; [3]): 0 | Plant response rating, Velvetleaf (velvetleaf; [4]): 0 | Velvetleaf plant response rating (velvetleaf; [5]): 0 | Velvetleaf plant response rating (velvetleaf; [6]): 1 | Plant response rating (0 to 10; 0 is no effect, 10 is complete control), Velvetleaf (velvetleaf; Rate 250 g/ha, Postemergence): 1 | Blackgrass plant response rating (blackgrass; [1]): 0 | Blackgrass plant response rating (0 to 10 scale) (blackgrass; [2]): 2 | Blackgrass plant response rating (blackgrass; [3]): 2 | Plant response rating, Blackgrass (blackgrass; [4]): 5 | Blackgrass plant response rating (blackgrass; [5]): 0 | Blackgrass plant response rating (blackgrass; [6]): 2 | Plant response rating (0 to 10; 0 is no effect, 10 is complete control), Blackgrass (blackgrass; Rate 250 g/ha, Postemergence): 3 | Blackgrass plant response rating (blackgrass; [7]): 7
